79 molecules from the METLIN SMRT retention time set (Domingo-Almenara et al. 2019) can be followed below.

The data set can be described thus: gradient 5% acetonitrile 3 min, to 50% in 2 min, to 85% in 15 min, held 3 min, 100 µL/min. Conditions: column: Zorbax Extend-C18 2.1 x 50 mm; eluents: water / acetonitrile, 0.1% formic acid. The method in brief:
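Values are retention times taken from adduct peaks that software picked and an analyst inspected. The pure standards were run as mixtures of ~100 molecules on HPLC linked to a quadrupole time-of-flight mass spectrometer, in positive and negative ionization mode. A Zorbax Extend-C18 column (2.1 × 50 mm, 1.8 μm) was used at 100 μL/min with water and acetonitrile, each including 0.1% formic acid.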
For `Cc1cc(NS(=O)(=O)c2ccc3c(c2)CCCC(=O)N3)ccc1Br`, the RP-LC retention time turned out to be 774 s. The molecule `O=C(Cc1csc(Nc2cccc(C(F)(F)F)c2)n1)NCc1ccco1` returned an RP-LC retention time of 636 s. `COc1ccc(C(=O)Nc2nc(-c3ccc4c(c3)NC(=O)CO4)c(C)s2)cc1` returned an RP-LC retention time of 881 s. With `CCn1cc2c3c(cccc31)CN(C(=O)Nc1cc(C)ccc1OC)CC2` the figure was 1080 s; with `Cc1cccc(NC(=O)c2ncn3c2C(=O)N(C2CC2)C(C)(C(=O)NC2CCCC2)C3)c1C` (centres undefined), 842 s; with `Cc1ccc(S(=O)(=O)N2CCC(CC(=O)NC(C)c3ccccc3)CC2)cc1` (centres undefined), 917 s. With `O=C(CN1C(=O)CN(C(=O)NCc2ccccc2)c2ccccc21)NCCc1ccco1` the figure was 803 s; with `Cc1ccc(-c2cnc(N3CCCC(C(=O)NCCC4=CCCCC4)C3)nc2)cc1` (centres undefined), 1290 s; with `CCS(=O)(=O)N1CCC[C@@H]2CN3CCc4cc(OC)ccc4[C@@H]3C[C@@H]21`, 670 s. On to `CCCC(=O)Nc1ccc(CCc2nc3ccc(C(=O)NC4CC4)cc3[nH]2)cc1`, for which the RP-LC retention time was determined as 599 s.

Consider `CCOC(=O)C1CCN(C(=O)NCc2cccs2)CC1`, for which the RP-LC retention time amounted to 677 s. Molecule `CCOC(=O)N1CCN(c2ncc(S(=O)(=O)c3ccc(C(C)C)cc3)c(N)n2)CC1` had an RP-LC retention time of 1030 s. With `Cc1c(C(=O)N2CCCC2)cnn1-c1cc(-c2nc(C(C)(C)C)no2)ccn1` the figure was 1030 s; with `CCS(=O)(=O)N1CCCc2cc(C(=O)NCCOC)ccc21`, 682 s; with `COc1cccc(S(=O)(=O)N2CCC(Cc3nncn3C)CC2)c1`, 641 s. `CCOc1ccc(S(=O)(=O)N2CCC(C(=O)NC3CCCC3)CC2)cc1` came in with an RP-LC retention time of 632 s. `CCOC(=O)C1CCN(c2cc(-n3nc(C)cc3C)ncn2)CC1`: the RP-LC retention time came to 1000 s. With `COc1cc(OC)cc(C(=O)N2CCC3(C2)C(=O)N(C)c2ccccc23)c1` (centres undefined) the figure was 770 s. With `Cc1nc2cc3c(cc2n1CC(=O)Nc1ccc2c(c1)OCCCO2)OCCO3`, the RP-LC retention time was found to be 618 s.

Consider `COc1ccc(-c2nnc(-c3ccc(Cl)c(S(=O)(=O)N(C)C)c3)o2)cc1OC`, for which the RP-LC retention time was found to be 904 s.

The molecule `O=C1COc2ccc(S(=O)(=O)N3CCC(C(=O)N4CCN(c5ccccc5)CC4)CC3)cc2N1` returned an RP-LC retention time of 766 s.

In the case of `CCN(Cc1ccccc1)C(=O)c1cn(-c2cc(N3CCC(C)CC3)ncn2)cn1`, the RP-LC retention time is 1120 s. As for `Cn1nc(-c2nnc(-c3ccccc3)o2)c2c1CCN(S(=O)(=O)c1cccc(C#N)c1)C2`, the figure is 884 s; as for `COc1ccc(NC(=O)N2CCC(c3nc(C(=O)N4CCCCC4)c(C)o3)CC2)cc1F`, 784 s. In the case of `Cc1ccn2cc(CCNC(=O)c3ccc(C(F)(F)F)cc3)nc2c1`, the RP-LC retention time was 580 s. `CCOC(=O)c1nc2cc(C)c(C)cc2nc1N1CCN(c2ccccn2)CC1` showed an RP-LC retention time of 730 s.

`CNC(=O)Nc1cccn2nc(-c3ccccc3)nc12` had an RP-LC retention time of 702 s.

The molecule `O=C(NC1CCN(c2ccc(N3CCCCCC3)nn2)CC1)c1ccc(F)c(F)c1` yielded an RP-LC retention time of 682 s. For `COC(=O)C1C(=O)C2=C(CC1C)NC(C)=C(C(=O)OC(C)C)C2c1cccc(F)c1` (centres undefined), the RP-LC retention time worked out at 951 s. With `COC(=O)c1cc2c(=O)n(-c3nc4ccc(Cl)cc4s3)ccc2nc1C`, the RP-LC retention time was 1350 s.

Turning to `CCc1nc2cc(N3CCC(C(=O)NCc4ccc(N(C)C)cc4)CC3)cnc2nc1CC`, the RP-LC retention time is 627 s.

In turn, `O=C(NCc1ccccn1)C1CCCN(c2ccc3cc(S(=O)(=O)N4CCCC4)ccc3n2)C1` (centres undefined) showed an RP-LC retention time of 585 s.

`CCc1noc(NC(C)=O)c1-c1ccc(C)c(S(=O)(=O)NCc2ccc(OC)cc2)c1`: the RP-LC retention time was determined as 807 s. `COc1ccc(NC(=O)NC2CCN(c3cc(N4CCCC4)cnn3)C2)c(C)c1` (centres undefined) had an RP-LC retention time of 626 s.

`CNC(=O)C1CCCN(c2nc3ncn(CC(=O)Nc4cc(Cl)ccc4C)c(=O)c3s2)C1` (centres undefined) displayed an RP-LC retention time of 669 s. On to `O=C(NCc1cccs1)c1ccc2c(c1)OCCCO2`, for which the RP-LC retention time was found to be 791 s. As to `Cc1ccc(Cl)c(NC(=O)C2CCc3nc(N4CCOCC4)ncc3C2)c1` (centres undefined), the RP-LC retention time was found to be 865 s. With `CC(C)C1c2nccn2CCCN1C(=O)c1n[nH]c(=O)c2ccccc12` (centres undefined) the figure was 569 s; with `CCOc1ccc(CNC(=O)c2snc(C(=O)NCc3ccccc3Cl)c2N)cc1OCC`, 1090 s; with `CCn1cc(-c2nc(CC(=O)NCc3ccc(C)cc3)cs2)c2cccnc21`, 912 s.

For `O=C(COc1cccc2ccc(N3CCOCC3)nc12)Nc1ccc(OC(F)(F)F)cc1`, the RP-LC retention time is 703 s.

Regarding `Cc1oc(-c2[nH]ncc2C(=O)N2CCCC2)cc1S(=O)(=O)N1CCC(C)CC1`, the RP-LC retention time came to 746 s. On to `COc1ccc(N2CCN(C(=O)CN3C(=O)c4ccccc4Sc4ncccc43)CC2)cc1`, for which the RP-LC retention time was found to be 725 s. As for `COc1ccc(-c2ncc(C(=O)Nc3ccc(OC)c(OC)c3)c(-c3ccncc3)n2)cc1`, the figure is 769 s; as for `Cc1nc2cc(N3CC(C(=O)N4CCN(c5ccccc5)CC4)CC3=O)ccc2o1` (centres undefined), 727 s; as for `CCOCCCNC(=O)C1CCCN(c2ccc(-c3ccc(C)c(C)c3)nn2)C1` (centres undefined), 687 s.

For the molecule `Cn1cc2c3c(cccc31)CN(C(=O)Cc1ccccc1F)CC2`, the RP-LC retention time turned out to be 954 s. `O=C(NCC(O)c1cccc2ccccc12)c1ccccc1C(F)(F)F` (centres undefined) showed an RP-LC retention time of 814 s. Molecule `Cc1ccc(OCC(O)Cn2c(C3CC3)nc3ccccc32)cc1C` (centres undefined) gave an RP-LC retention time of 724 s. `CCN1CCN(CCNC(=O)c2c(N3CCCC3=O)c3cc(OC)ccc3n2C)CC1` displayed an RP-LC retention time of 592 s. `Cc1cc(NC(=O)c2ccc(-n3ccnc3)nn2)no1` gave an RP-LC retention time of 553 s. The molecule `CCN(CC)c1ccc(-c2noc(CN3CCc4ccccc4C3)n2)cn1` returned an RP-LC retention time of 718 s. In turn, `CCN1CCC2(CC1)OC(=O)C(C)=C2C(=O)NCCc1ccc(Cl)cc1` yielded an RP-LC retention time of 653 s.

`Cc1nc2cc(-c3noc(Cc4c(F)cccc4Cl)n3)ccc2o1` showed an RP-LC retention time of 1050 s. With `Cc1noc(C2(NC(=O)c3cccc(F)c3)CCCCC2)n1`, the RP-LC retention time was 860 s. Turning to `CCNC(=O)c1cnn(-c2cc(-c3nc(CC)no3)ccn2)c1C`, the RP-LC retention time stood at 806 s. With `O=S(=O)(c1cc(-c2nnc(C3CCCC3)o2)co1)N1CCN(C2CCCCC2)CC1` the figure was 715 s; with `CCN1C(=O)c2ccccc2Oc2ccc(C(=O)NCc3ccccc3OC)cc21`, 917 s; with `Cn1nc(C(=O)Nc2ccccc2)c2c1CCN(C(=O)Nc1cccc(Br)c1)C2`, 914 s. `CCc1nc(-c2cccc(-c3noc(CN4C(=O)COc5ccc(Cl)cc54)n3)c2)cs1` returned an RP-LC retention time of 1240 s. Turning to `CCCS(=O)(=O)N1CCc2ccc(NC(=O)Nc3cc(Cl)ccc3OC)cc2C1`, the RP-LC retention time came out at 995 s.

As to `CC(=O)Nc1ccc(C(=O)NCCNC(=O)CC(c2ccccc2)c2ccccc2)cc1`, the RP-LC retention time came to 697 s. Molecule `O=C(Cn1nc2c3sc(N4CCCCC4)nc3ncn2c1=O)Nc1cccc(Br)c1` showed an RP-LC retention time of 855 s.

`CC(=O)Nc1ccc(-n2cnc(C(=O)N3CCN(c4ccc(F)cc4)CC3)c2)nc1`: the RP-LC retention time was found to be 688 s. Turning to `O=C(NCCC1=CCCCC1)C(=O)NCC1(c2cccs2)CCCC1`, the RP-LC retention time was determined as 1240 s. Regarding `COc1ccc2c(c1)C1(CCN(C(=O)Cc3cccc(F)c3)C1)C(=O)N2C` (centres undefined), the RP-LC retention time turned out to be 788 s.

Regarding `O=C(NCc1cccs1)C1CCCN(Cc2nc(-c3cccnc3)no2)C1` (centres undefined), the RP-LC retention time was 571 s. On to `O=C(c1cc2ccccc2o1)N1CCN(Cc2ccsc2)CC1`, for which the RP-LC retention time is 578 s. The molecule `COc1ccc(C2CCCN2C(=O)c2ccn(C)n2)cc1` (centres undefined) came in with an RP-LC retention time of 730 s. With `Cc1onc(-c2ccc(Br)cc2)c1C(=O)NCc1cccs1`, the RP-LC retention time was determined as 988 s.

Molecule `O=C(c1nc(Nc2ccc(F)cc2)c2ccccc2n1)N1CCCCCC1` displayed an RP-LC retention time of 845 s. Turning to `COCC1CN(S(=O)(=O)c2cccc(C#N)c2)CCC1(F)F` (centres undefined), the RP-LC retention time is 892 s. With `COc1ccc(-c2cc(N3CCN(C(=O)NCCC(C)C)CC3)ncn2)cc1OC` the figure was 658 s; with `O=S(=O)(NCc1cccs1)c1cc(-c2nnc(-c3ccccc3)o2)ccc1F`, 1070 s. With `CC(C)S(=O)(=O)N1CCC2(CC1)NCCCN=C2Nc1cccc(F)c1` the figure was 638 s; with `COc1ccc(CCc2nc3nccc(-c4ccc(OC)cc4F)n3n2)cc1`, 941 s.

`Cc1cccc(NC(=O)C2CCCN(S(=O)(=O)c3c[nH]c(C(=O)N4CCCCCC4)c3)C2)c1` (centres undefined) displayed an RP-LC retention time of 922 s. `CC1CC(=O)Nc2cc(S(=O)(=O)N3CCN(c4ncccn4)CC3)ccc2S1` (centres undefined) came in with an RP-LC retention time of 803 s.

The molecule `CC(=O)c1ccc(S(=O)(=O)N2CCc3nc[nH]c3C2)cc1` showed an RP-LC retention time of 585 s.
